Laboratory results as given in patent publication US20110124006A1, “METHOD FOR SCREENING OF THERAPEUTIC AGENT FOR CANCER” (Hismitsu Pharmaceutical Co., Inc., priority 2008, published 2011).

Assays:
MYCN protein expression = assay: Immunoblot of MYCN protein induced by NLRR1 expression in SK-N-BE cells; assay type: cell-based; settings: NLRR1 plasmid 1000 ng/ml, 12 hours, 1 μM AG1478 or 2 μM U0126
Method: An expression plasmid of NLRR1 tagged with a myc tag was introduced into SK-N-BE cells at the concentration of 1000 ng/ml. The cells were cultured for 12 hours in the presence of 1 μM of EGFR inhibitor AG1478 or 2 μM of ERK1/2 inhibitor U0126, and then the cells were collected and subjected to an immunoblot method using an anti-myc antibody, an anti-MYCN antibody and an anti-actin antibody. FIG. 34 is a photograph showing a result of an immunoblot.

SK-N-BE cells [1] = assay: MTT assay, proliferation of SK-N-BE cells in the presence of EGF; assay type: cell-based; settings: 10 ng/ml EGF plus 5 μM inhibitor, vs EGF-only control, T-test p<0.01
Method: SK-N-BE cells were cultured in the presence of 10 ng/ml EGF (control, which corresponds to “mock” in FIG. 26), in the presence of 10 ng/ml EGF and 5 μM of EGFR inhibitor AG1478, as well as in the presence of 10 ng/ml EGF and 5 μM of Ras inhibitor FTI277, and the cell proliferation was quantified by the MTT assay over time. FIG. 26 is a graph showing the proliferation of cells.

MYCN expression [2] = assay: Immunoblot of EGF-induced MYCN expression in SK-N-BE cells with pathway inhibitors; assay type: cell-based; settings: six hours, 10 ng/ml EGF, inhibitor concentrations shown in FIG. 27
Method: SK-N-BE cells were cultured for six hours in the presence of 10 ng/ml EGF and in the presence of an EGFR inhibitor AG1478, a Ras inhibitor FTI277, an ERK1/2 inhibitor U0126, a PI3Kinase inhibitor LY294002, a INK inhibitor SP600125 or a p38MAPK inhibitor SB203580 in each concentration shown in FIG. 27. Next, respective cells were collected, and the expression of MYCN was analyzed by an immunoblot method using an anti-MYCN antibody and an anti-actin antibody. FIG. 27 is a photograph showing a result of an immunoblot.

[3] = test system: SK-N-BE cells forced to express NLRR1; settings: SK-N-BE cells forced to express NLRR1, presence vs absence of U0126, over time
Method: SK-N-BE cells that were forced to express NLRR1 were cultured in the presence and absence of ERK1/2 (ERK1 and ERK2) inhibitor, U0126. Furthermore, as a control, SK-N-BE cells into which a plasmid encoding NLRR1 was not introduced were cultured in the absence of U0126. The proliferation of these cells was quantified by an MTT assay over time. FIG. 23 is a graph showing a proliferation of cells. In the drawing, A denotes the proliferation of SK-N-BE cells forced to express NLRR1; B denotes the proliferation of SK-N-BE cells forced to express NLRR1 in the presence of U0126; and C denotes the proliferation of control cells.

[4] = test system: phosphorylation of EGFR and ERK; assay: Western blotting of EGFR and ERK phosphorylation in MCF-7 cells forced to express NLRR1; assay type: cell-based; settings: MCF-7 cells forced to express NLRR1, 10 mM cyclodextrin 30 minutes 37° C., then EGF three minutes
Method: The effect of NLRR1 on EGF signal transduction in cells treated with cyclodextrin (methyl-β-cyclodextrin, mβCD) that inhibits lipid raft was examined. FIG. 39 is a photograph showing a result of an immunoblot. […] The cells were washed with the medium, and cultured for three minutes in a medium containing EGF with different concentrations. Then, the phosphorylation of EGFR and ERK was analyzed by Western blotting. With the expression of NLRR1, the enhancement of phosphorylation of EGFR and ERK by EGF was detected. […] From the result, it has been clarified that the enhancement of an EGF signal by NLRR1 needs the structure of lipid raft. Thus, it is thought that treatment of cancer using the combination of an antibody inhibiting NLRR1 and an inhibitor of lipid raft is effective.

MYCN expression [5] = assay: Immunoblot of EGF-induced MYCN expression in SK-N-BE cells after siRNA introduction; assay type: cell-based; settings: 10 hours, 10 ng/ml EGF
Method: SK-N-BE cells, SK-N-BE cells into which siRNA against NLRR1 was introduced, and SK-N-BE cells into which Silencer (registered trademark) Negative Control #1 siRNA was introduced were cultured for 10 hours in the presence of 10 ng/ml EGF, and the cells were collected. Next, these cells were subjected to an immunoblot method using an anti-MYCN antibody, an anti-NLRR1 rabbit polyclonal antibody and an anti-actin antibody, and expression of MYCN and NLRR1 in the protein level was detected. FIG. 16 is a photograph showing a result of immunoblot. The result of the cells into which control siRNA was introduced corresponds to “mock” in FIG. 16.

[6] = test system: SK-N-BE cells, NLF cells, SH-SY5Y cells, SMS-SAN cells; assay: MTT assay, EGF-induced proliferation of neuroblastoma-derived cells; assay type: cell-based; settings: SK-N-BE cells with siRNA, 10 ng/ml EGF
Method: SK-N-BE cells, NLF cells, SH-SY5Y cells, SMS-SAN cells, which are cell lines derived from neuroblastoma, and SK-N-BE cells into which siRNA against NLRR1 was introduced were cultured in the presence and absence of 10 ng/ml EGF, and the cell proliferation was quantified by the MTT assay over time. FIG. 28 is a graph showing the cell proliferation, showing the change fold ratio of the proliferation of cells in the presence of EGF to the proliferation of cells in the absence of EGF.

SHEP21N cells = assay: MTT assay, proliferation of SHEP21N cells forced to express MYCN; assay type: cell-based; settings: absence of tetracycline (expression of MYCN increased)
From the text: To SHEP21N cells that were forced to express MYCN in the absence of tetracycline, siRNA against NLRR1 was introduced, and the cell proliferation was quantified by the MTT assay over time. FIG. 15 is a graph showing the proliferation of cells. In the absence of tetracycline (expression of MYCN was increased), the proliferation of cells was promoted as compared with the case in the presence of tetracycline (expression of MYCN was suppressed). When Silencer (registered trademark) Negative Control #1 siRNA was introduced in the absence of tetracycline (expression of MYCN was increased) as a control, the proliferation rate of cells was not changed.

NLRR1 = assay: Immunoblot of NLRR1 expression after siRNA introduction; assay type: cell-based; settings: SK-N-BE cells, anti-NLRR1 rabbit polyclonal antibody
Method: (§1) To SK-N-BE cells derived from neuroblastoma, siRNA against NLRR1 was introduced so as to suppress the expression of NLRR1. As the siRNA, RNA fragment of the base sequences shown SEQ ID NOs: 3 and 4 were annealed and used.
(§2) After siRNA was introduced, the cells were cultured, and the cell proliferation was quantified by the MTT assay over time. As a control, cells into which Silencer (registered trademark) Negative Control #1 siRNA (Ambion) was introduced were used. FIG. 11 is a graph showing the proliferation of cells. […] FIG. 12 is a photograph of an immunoblot in which the expression of NLRR1 in the cells into which siRNA against NLRR1 was introduced and the control cells were detected by using an anti-NLRR1 rabbit polyclonal antibody. The anti-NLRR1 rabbit polyclonal antibody was prepared by immunizing a rabbit with a synthetic peptide corresponding to 693-712 residues of an amino acid sequence of NLRR1 (SEQ ID NO: 2) as an antigen. The result when an anti-actin antibody was used as the loading control is also shown.

[7] = test system: SK-N-AS cell line continuously expressing NLRR1; assay: Flow cytometry of sub-G1 cells (apoptosis) under serum-free conditions; assay type: cell-based; settings: SK-N-AS line continuously expressing NLRR1, serum-free 36 hours, PI staining
From the text: It is known that in the SK-N-AS neuroblastoma cell line, cell death is induced when serum is removed, and that the number of sub-G1 cells is increased from the flow cytometry analysis. SK-N-AS cells into which an empty vector plasmid was introduced (corresponding to “mock” on the left in FIG. 17), a cell line continuously expressing NLRR1 obtained by introducing a plasmid encoding NLRR1 into SK-N-AS cells (corresponding to “+NLRR1” in the middle of FIG. 17), and cells obtained by introducing siRNA against NLRR1 into this cell line continuously expressing NLRR1 (corresponding to “+siRNA+NLRR1” on the right of FIG. 17) were PI stained before and after the cells were cultured under the serum-free conditions for 36 hours, and analyzed by flow cytometry. The rate of the sub-G1 cells was evaluated as a rate of apoptosis. […] FIG. 18 is a graph showing the proportion of the number of sub-G1 cells to the total number of cells before and after culturing under the serum free conditions of respective cells based on the results of FIG. 17, in which the unit of the ordinate axis is %.

SK-N-BE cells [8] = assay: MTT assay, proliferation of SK-N-BE cells after siRNA introduction; assay type: cell-based; settings: vs negative control siRNA, day 4 and day 5 p<0.01
Method: as §1, §2

Molecule	expression induction of MYCN protein by the expression of NLRR1 (immunoblot) (MYCN protein expression)	proliferation of cells (MTT assay) (SK-N-BE cells [1])	expression increase of MYCN by the induction of EGF (immunoblot) (MYCN expression [2])	other results
COc1cc2ncnc(Nc3cccc(Cl)c3)c2cc1OC [AG1478]	expression induction of MYCN protein by the expression of NLRR1 is suppressed	the proliferation of cells is suppressed	expression increase of MYCN by the induction of EGF was inhibited	–
COC(=O)[C@H](CCSC)NC(=O)c1ccc(NC[C@@H](N)CS)cc1-c1ccccc1 [FTI277]	–	the proliferation of cells is suppressed	expression increase of MYCN by the induction of EGF was inhibited	–
C[S+]([O-])c1ccc(-c2nc(-c3ccncc3)c(-c3ccc(F)cc3)[nH]2)cc1 (stereo not shown) [SB203580]	–	–	expression increase of MYCN by the induction of EGF was not inhibited	–
N#CC(=C(/N)Sc1ccccc1N)/C(C#N)=C(\N)Sc1ccccc1N [U0126]	expression induction of MYCN protein by the expression of NLRR1 is suppressed	–	expression increase of MYCN by the induction of EGF was inhibited	proliferation of cells (MTT assay) [3]: the cell proliferation was suppressed
methyl-β-cyclodextrin [mβCD]	–	–	–	enhancement of phosphorylation of EGFR and ERK by NLRR1 [4]: the enhancement of phosphorylation of EGFR and ERK by NLRR1 was not observed
siRNA against NLRR1: annealed RNA fragments of SEQ ID NOs: 3 and 4, suppresses the expression of NLRR1 (chain 1 UCUUGGUUGAGCUGUGUAGUU; chain 2 AACUACACAGCUCAACCAAGA; RNA, backbone not given here; listed as Homo sapiens)	–	–	–	induction of the expression of MYCN by EGF treatment (immunoblot) (MYCN expression [5]): the induction of the expression of MYCN by EGF treatment was suppressed; EGF-induced cell proliferation (MTT assay, fold ratio with vs without EGF) [6]: EGF-induced cell proliferation was remarkably suppressed; proliferation of cells due to increased MYCN expression (MTT assay) (SHEP21N cells): the proliferation of cells due to the increase in the MYCN expression did not occur; expression of NLRR1 (immunoblot) (NLRR1): the expression of NLRR1 was suppressed; apoptosis (proportion of sub-G1 cells) [7]: the increase in the apoptosis was observed; proliferation of cells (MTT assay) (SK-N-BE cells [8]): the proliferation of cells is suppressed
